Tests used:
Assay in all cases: radiometric filter-binding kinase assay
[1] = tested on: AKT2 (human), P31751 [S474D]
MKNK2 (human) = MKNK2 (human) (UniProt Q9HBH9)
MARK3 (human) = MARK3 (human) (UniProt P27448)
PRKACA (human) = PRKACA (human) (UniProt P17612)
EPHA2 (human) = EPHA2 (human) (UniProt P29317)
[2] = tested on: AKT1 (human), P31749 [S473D]
NEK6 (human) = NEK6 (human) (UniProt Q9HC98)
MKNK1 (human) = MKNK1 (human) (UniProt Q9BUB5)
PRKCZ (human) = PRKCZ (human) (UniProt Q05513)
NEK2 (human) = NEK2 (human) (UniProt P51955)
PKN2 (human) = PKN2 (human) (UniProt Q16513)
LCK (mouse) = conditions: accession and sequence are those of the human protein
MAPK12 (human) = MAPK12 (human) (UniProt P53778)
BRSK2 (human) = BRSK2 (human) (UniProt Q8IWQ3)
IKBKE (human) = IKBKE (human) (UniProt Q14164)
PIM2 (human) = PIM2 (human) (UniProt Q9P1W9)
CDK2 CCNA2 (human) = CDK2 CCNA2 (human) (UniProt P20248+P24941)
YES1 (human) = YES1 (human) (UniProt P07947)
MELK (human) = MELK (human) (UniProt Q14680)
CHEK2 (human) = CHEK2 (human) (UniProt O96017)
CSK (human) = CSK (human) (UniProt P41240)
PRKCA (human) = PRKCA (human) (UniProt P17252)
CHEK1 (human) = CHEK1 (human) (UniProt O14757)
RPS6KA3 KD1 KD2 (human) = RPS6KA3 KD1 KD2 (human) (UniProt P51812)
PLK1 (human) = PLK1 (human) (UniProt P53350)
MAPKAPK2 (human) = MAPKAPK2 (human) (UniProt P49137)
[3] = target: PRKAA1 PRKAB2 PRKAG1 (human) (UniProt O43741+Q13131+P54619)
MAPK9 (human) = MAPK9 (human) (UniProt P45984)
PAK7 (human) = PAK7 (human) (UniProt Q9P286)
PAK4 (human) = PAK4 (human) (UniProt O96013)
SRPK1 (human) = SRPK1 (human) (UniProt Q96SB4)
DYRK2 (human) = DYRK2 (human) (UniProt Q92630)
MST4 (human) = MST4 (human) (UniProt Q9P289)
MAPKAPK5 (human) = MAPKAPK5 (human) (UniProt Q8IW41)
PIM1 (human) = PIM1 (human) (UniProt P11309)
GSK3B (human) = GSK3B (human) (UniProt P49841)
PIM3 (human) = PIM3 (human) (UniProt Q86V86)
PAK6 (human) = PAK6 (human) (UniProt Q9NQU5)
MAPK8 (human) = MAPK8 (human) (UniProt P45983)
FGFR1 (human) = FGFR1 (human) (UniProt P11362)

PRKCZ (human), sequence (Q05513 whole entry, looked up): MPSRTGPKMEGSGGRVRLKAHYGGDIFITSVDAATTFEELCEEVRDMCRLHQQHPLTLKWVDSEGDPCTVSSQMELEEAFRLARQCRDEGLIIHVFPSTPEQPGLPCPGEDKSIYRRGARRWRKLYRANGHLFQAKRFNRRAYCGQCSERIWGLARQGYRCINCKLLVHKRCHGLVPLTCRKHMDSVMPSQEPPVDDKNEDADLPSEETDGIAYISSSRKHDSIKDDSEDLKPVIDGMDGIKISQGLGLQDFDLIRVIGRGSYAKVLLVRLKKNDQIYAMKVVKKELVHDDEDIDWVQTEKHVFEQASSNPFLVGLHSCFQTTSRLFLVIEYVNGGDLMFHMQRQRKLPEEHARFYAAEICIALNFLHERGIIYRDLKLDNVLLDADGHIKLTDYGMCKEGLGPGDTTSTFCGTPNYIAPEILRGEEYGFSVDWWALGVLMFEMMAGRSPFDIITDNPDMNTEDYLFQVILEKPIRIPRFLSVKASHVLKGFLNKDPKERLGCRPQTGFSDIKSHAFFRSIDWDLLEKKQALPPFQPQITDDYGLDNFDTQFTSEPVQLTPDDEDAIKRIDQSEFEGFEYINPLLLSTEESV
PAK6 (human), sequence (Q9NQU5 whole entry, looked up): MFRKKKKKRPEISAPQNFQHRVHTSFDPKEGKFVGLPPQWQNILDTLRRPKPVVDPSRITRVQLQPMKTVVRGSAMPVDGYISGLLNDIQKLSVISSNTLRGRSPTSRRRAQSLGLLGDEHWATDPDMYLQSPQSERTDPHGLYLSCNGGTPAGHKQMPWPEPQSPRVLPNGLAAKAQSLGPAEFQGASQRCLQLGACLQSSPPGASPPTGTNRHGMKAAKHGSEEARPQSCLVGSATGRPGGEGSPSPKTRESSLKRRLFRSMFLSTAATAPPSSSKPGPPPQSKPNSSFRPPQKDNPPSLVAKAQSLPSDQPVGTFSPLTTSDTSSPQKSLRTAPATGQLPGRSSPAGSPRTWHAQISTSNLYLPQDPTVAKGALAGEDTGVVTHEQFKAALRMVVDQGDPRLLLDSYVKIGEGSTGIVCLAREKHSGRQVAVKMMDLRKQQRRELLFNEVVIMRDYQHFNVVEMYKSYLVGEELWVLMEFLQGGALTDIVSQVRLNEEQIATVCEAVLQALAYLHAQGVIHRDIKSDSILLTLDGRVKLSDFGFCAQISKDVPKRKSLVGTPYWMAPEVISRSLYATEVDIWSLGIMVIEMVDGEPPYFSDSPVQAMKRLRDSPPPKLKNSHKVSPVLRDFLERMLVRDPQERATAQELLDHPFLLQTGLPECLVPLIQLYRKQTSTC
MAPK9 (human), sequence (P45984 whole entry, looked up): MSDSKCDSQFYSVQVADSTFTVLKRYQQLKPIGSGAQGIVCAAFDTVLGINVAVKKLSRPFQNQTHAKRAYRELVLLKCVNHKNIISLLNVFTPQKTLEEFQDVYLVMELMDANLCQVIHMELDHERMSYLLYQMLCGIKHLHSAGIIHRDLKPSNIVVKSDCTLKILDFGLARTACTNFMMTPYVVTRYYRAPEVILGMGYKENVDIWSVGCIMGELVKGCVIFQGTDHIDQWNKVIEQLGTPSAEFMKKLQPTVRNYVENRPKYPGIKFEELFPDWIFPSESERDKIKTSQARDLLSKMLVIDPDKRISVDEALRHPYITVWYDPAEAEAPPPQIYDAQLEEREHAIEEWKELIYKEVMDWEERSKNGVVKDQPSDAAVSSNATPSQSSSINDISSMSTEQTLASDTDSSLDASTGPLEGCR
MELK (human), sequence (Q14680 whole entry, looked up): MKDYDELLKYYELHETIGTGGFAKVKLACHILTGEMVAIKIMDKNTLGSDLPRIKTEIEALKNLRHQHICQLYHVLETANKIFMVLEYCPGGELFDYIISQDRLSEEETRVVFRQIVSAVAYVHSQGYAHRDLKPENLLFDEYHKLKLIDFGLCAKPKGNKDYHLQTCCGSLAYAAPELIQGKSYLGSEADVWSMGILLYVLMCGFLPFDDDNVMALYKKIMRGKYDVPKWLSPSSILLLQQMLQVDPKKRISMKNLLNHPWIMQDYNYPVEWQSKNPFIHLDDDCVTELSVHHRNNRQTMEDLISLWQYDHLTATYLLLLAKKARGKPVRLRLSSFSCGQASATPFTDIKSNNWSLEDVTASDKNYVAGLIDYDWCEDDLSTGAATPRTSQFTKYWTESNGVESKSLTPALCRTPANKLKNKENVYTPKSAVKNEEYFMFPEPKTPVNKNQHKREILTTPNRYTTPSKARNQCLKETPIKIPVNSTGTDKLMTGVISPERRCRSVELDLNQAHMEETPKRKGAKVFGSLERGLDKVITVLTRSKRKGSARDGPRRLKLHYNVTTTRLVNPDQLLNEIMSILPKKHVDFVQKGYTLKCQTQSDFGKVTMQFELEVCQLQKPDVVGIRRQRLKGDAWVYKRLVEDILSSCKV
RPS6KA3 KD1 KD2 (human), sequence (P51812 whole entry, looked up): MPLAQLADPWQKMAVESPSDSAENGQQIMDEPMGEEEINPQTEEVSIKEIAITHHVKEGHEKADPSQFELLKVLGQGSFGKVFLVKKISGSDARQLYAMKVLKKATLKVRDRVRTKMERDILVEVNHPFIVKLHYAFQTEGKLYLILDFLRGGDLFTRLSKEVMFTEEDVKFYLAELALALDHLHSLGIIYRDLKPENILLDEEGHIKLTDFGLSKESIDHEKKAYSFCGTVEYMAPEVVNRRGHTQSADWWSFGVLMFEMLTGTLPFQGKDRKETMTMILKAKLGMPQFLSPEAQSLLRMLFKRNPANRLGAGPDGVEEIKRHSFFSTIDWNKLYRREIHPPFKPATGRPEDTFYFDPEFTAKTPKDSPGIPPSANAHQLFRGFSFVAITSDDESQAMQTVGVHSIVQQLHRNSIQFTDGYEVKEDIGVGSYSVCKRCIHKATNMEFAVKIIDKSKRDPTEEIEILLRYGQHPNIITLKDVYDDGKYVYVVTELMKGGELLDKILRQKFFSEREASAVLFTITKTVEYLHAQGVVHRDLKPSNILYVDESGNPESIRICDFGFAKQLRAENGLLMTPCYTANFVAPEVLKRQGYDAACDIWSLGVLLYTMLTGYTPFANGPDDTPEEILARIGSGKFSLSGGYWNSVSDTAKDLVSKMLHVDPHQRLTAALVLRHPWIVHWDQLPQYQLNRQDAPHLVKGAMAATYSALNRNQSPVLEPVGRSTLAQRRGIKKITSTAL
AKT2 (human), P31751 [S474D], sequence (P31751 whole entry S474D, looked up): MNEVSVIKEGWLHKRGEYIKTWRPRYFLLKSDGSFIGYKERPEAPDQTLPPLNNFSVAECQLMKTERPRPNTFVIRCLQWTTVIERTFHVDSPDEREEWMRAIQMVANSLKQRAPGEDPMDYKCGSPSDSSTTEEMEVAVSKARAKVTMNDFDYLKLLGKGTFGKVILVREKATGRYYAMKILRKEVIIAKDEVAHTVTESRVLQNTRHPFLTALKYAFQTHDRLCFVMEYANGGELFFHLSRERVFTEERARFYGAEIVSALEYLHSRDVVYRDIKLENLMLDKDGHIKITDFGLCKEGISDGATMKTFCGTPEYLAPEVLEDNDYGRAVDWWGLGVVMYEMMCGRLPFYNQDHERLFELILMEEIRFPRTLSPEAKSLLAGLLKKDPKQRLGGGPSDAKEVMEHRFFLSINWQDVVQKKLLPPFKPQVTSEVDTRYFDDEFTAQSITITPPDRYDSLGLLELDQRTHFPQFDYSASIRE
AKT1 (human), P31749 [S473D], sequence (P31749 whole entry S473D, looked up): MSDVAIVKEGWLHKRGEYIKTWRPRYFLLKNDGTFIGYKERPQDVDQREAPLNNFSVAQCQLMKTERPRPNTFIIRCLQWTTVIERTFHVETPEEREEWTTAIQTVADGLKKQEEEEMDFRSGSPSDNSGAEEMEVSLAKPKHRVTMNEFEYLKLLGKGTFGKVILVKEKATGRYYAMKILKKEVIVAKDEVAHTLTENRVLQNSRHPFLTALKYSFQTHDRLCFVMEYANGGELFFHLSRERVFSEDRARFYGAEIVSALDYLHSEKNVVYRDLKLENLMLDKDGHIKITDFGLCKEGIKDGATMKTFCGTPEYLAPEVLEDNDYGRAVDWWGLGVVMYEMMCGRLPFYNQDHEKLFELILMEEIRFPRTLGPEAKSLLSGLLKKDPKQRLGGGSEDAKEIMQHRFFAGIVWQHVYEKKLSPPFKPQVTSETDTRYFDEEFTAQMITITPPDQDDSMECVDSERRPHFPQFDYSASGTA

Oc1ccc2c(c1)C(O)c1cc(O)ccc1-2
residual activity ([1]; compound 20.0 µM): 80%
residual activity (MKNK2 (human); compound 20.0 µM): 65%
residual activity (MARK3 (human); compound 20.0 µM): 64%
residual activity (PRKACA (human); compound 20.0 µM): 76%
residual activity (EPHA2 (human); compound 20.0 µM): 86%
residual activity ([2]; compound 20.0 µM): 115%
residual activity (NEK6 (human); compound 20.0 µM): 78%
residual activity (MKNK1 (human); compound 20.0 µM): 71%
residual activity (PRKCZ (human); compound 20.0 µM): 89%
residual activity (NEK2 (human); compound 20.0 µM): 84%
residual activity (PKN2 (human); compound 20.0 µM): 86%
residual activity (LCK (mouse); compound 20.0 µM): 93%
residual activity (MAPK12 (human); compound 20.0 µM): 85%
residual activity (BRSK2 (human); compound 20.0 µM): 96%
residual activity (IKBKE (human); compound 20.0 µM): 103%
residual activity (PIM2 (human); compound 20.0 µM): 66%
residual activity (CDK2 CCNA2 (human); compound 20.0 µM): 54%
residual activity (YES1 (human); compound 20.0 µM): 72%
residual activity (MELK (human); compound 20.0 µM): 70%
residual activity (CHEK2 (human); compound 20.0 µM): 64%
residual activity (CSK (human); compound 20.0 µM): 98%
residual activity (PRKCA (human); compound 20.0 µM): 94%
residual activity (CHEK1 (human); compound 20.0 µM): 74%
residual activity (RPS6KA3 KD1 KD2 (human); compound 20.0 µM): 80%
residual activity (PLK1 (human); compound 20.0 µM): 66%
residual activity (MAPKAPK2 (human); compound 20.0 µM): 48%
residual activity ([3]; compound 20.0 µM): 99%
residual activity (MAPK9 (human); compound 20.0 µM): 99%
residual activity (PAK7 (human); compound 20.0 µM): 64%
residual activity (PAK4 (human); compound 20.0 µM): 46%
residual activity (SRPK1 (human); compound 20.0 µM): 80%
residual activity (DYRK2 (human); compound 20.0 µM): 69%
residual activity (MST4 (human); compound 20.0 µM): 87%
residual activity (MAPKAPK5 (human); compound 20.0 µM): 61%
residual activity (PIM1 (human); compound 20.0 µM): 19%
residual activity (GSK3B (human); compound 20.0 µM): 54%
residual activity (PIM3 (human); compound 20.0 µM): 21%
residual activity (PAK6 (human); compound 20.0 µM): 90%
residual activity (MAPK8 (human); compound 20.0 µM): 97%
residual activity (FGFR1 (human); compound 20.0 µM): 62%

Oc1ccc2c(c1)oc1c3ccccc3c(O)cc21
residual activity ([1]; compound 1.0 µM): 61%
residual activity (MKNK2 (human); compound 1.0 µM): 55%
residual activity (MARK3 (human); compound 1.0 µM): 80%
residual activity (PRKACA (human); compound 1.0 µM): 101%
residual activity (EPHA2 (human); compound 1.0 µM): 84%
residual activity ([2]; compound 1.0 µM): 90%
residual activity (NEK6 (human); compound 1.0 µM): 77%
residual activity (MKNK1 (human); compound 1.0 µM): 66%
residual activity (PRKCZ (human); compound 1.0 µM): 70%
residual activity (NEK2 (human); compound 1.0 µM): 98%
residual activity (PKN2 (human); compound 1.0 µM): 35%
residual activity (LCK (mouse); compound 1.0 µM): 92%
residual activity (MAPK12 (human); compound 1.0 µM): 82%
residual activity (BRSK2 (human); compound 1.0 µM): 66%
residual activity (IKBKE (human); compound 1.0 µM): 81%
residual activity (PIM2 (human); compound 1.0 µM): 40%
residual activity (CDK2 CCNA2 (human); compound 1.0 µM): 51%
residual activity (YES1 (human); compound 1.0 µM): 95%
residual activity (MELK (human); compound 1.0 µM): 20%
residual activity (CHEK2 (human); compound 1.0 µM): 79%
residual activity (CSK (human); compound 1.0 µM): 98%
residual activity (PRKCA (human); compound 1.0 µM): 101%
residual activity (CHEK1 (human); compound 1.0 µM): 92%
residual activity (RPS6KA3 KD1 KD2 (human); compound 1.0 µM): 40%
residual activity (PLK1 (human); compound 1.0 µM): 104%
residual activity (MAPKAPK2 (human); compound 1.0 µM): 80%
residual activity ([3]; compound 1.0 µM): 91%
residual activity (MAPK9 (human); compound 1.0 µM): 102%
residual activity (PAK7 (human); compound 1.0 µM): 94%
residual activity (PAK4 (human); compound 1.0 µM): 75%
residual activity (SRPK1 (human); compound 1.0 µM): 83%
residual activity (DYRK2 (human); compound 1.0 µM): 5%
residual activity (MST4 (human); compound 1.0 µM): 86%
residual activity (MAPKAPK5 (human); compound 1.0 µM): 95%
residual activity (PIM1 (human); compound 1.0 µM): 10%
residual activity (GSK3B (human); compound 1.0 µM): 77%
residual activity (PIM3 (human); compound 1.0 µM): 17%
residual activity (PAK6 (human); compound 1.0 µM): 121%
residual activity (MAPK8 (human); compound 1.0 µM): 81%
residual activity (FGFR1 (human); compound 1.0 µM): 77%

COc1ccc2c(c1)[nH]c1c(C)nccc12
residual activity ([1]; compound 1.0 µM): 84%
residual activity (MKNK2 (human); compound 1.0 µM): 84%
residual activity (MARK3 (human); compound 1.0 µM): 107%
residual activity (PRKACA (human); compound 1.0 µM): 104%
residual activity (EPHA2 (human); compound 1.0 µM): 87%
residual activity ([2]; compound 1.0 µM): 100%
residual activity (NEK6 (human); compound 1.0 µM): 88%
residual activity (MKNK1 (human); compound 1.0 µM): 81%
residual activity (PRKCZ (human); compound 1.0 µM): 77%
residual activity (NEK2 (human); compound 1.0 µM): 115%
residual activity (PKN2 (human); compound 1.0 µM): 61%
residual activity (LCK (mouse); compound 1.0 µM): 88%
residual activity (MAPK12 (human); compound 1.0 µM): 67%
residual activity (BRSK2 (human); compound 1.0 µM): 107%
residual activity (IKBKE (human); compound 1.0 µM): 83%
residual activity (PIM2 (human); compound 1.0 µM): 101%
residual activity (CDK2 CCNA2 (human); compound 1.0 µM): 80%
residual activity (YES1 (human); compound 1.0 µM): 100%
residual activity (MELK (human); compound 1.0 µM): 93%
residual activity (CHEK2 (human); compound 1.0 µM): 95%
residual activity (CSK (human); compound 1.0 µM): 103%
residual activity (PRKCA (human); compound 1.0 µM): 94%
residual activity (CHEK1 (human); compound 1.0 µM): 94%
residual activity (RPS6KA3 KD1 KD2 (human); compound 1.0 µM): 78%
residual activity (PLK1 (human); compound 1.0 µM): 96%
residual activity (MAPKAPK2 (human); compound 1.0 µM): 87%
residual activity ([3]; compound 1.0 µM): 106%
residual activity (MAPK9 (human); compound 1.0 µM): 84%
residual activity (PAK7 (human); compound 1.0 µM): 90%
residual activity (PAK4 (human); compound 1.0 µM): 67%
residual activity (SRPK1 (human); compound 1.0 µM): 78%
residual activity (DYRK2 (human); compound 1.0 µM): 35%
residual activity (MST4 (human); compound 1.0 µM): 135%
residual activity (MAPKAPK5 (human); compound 1.0 µM): 97%
residual activity (PIM1 (human); compound 1.0 µM): 74%
residual activity (GSK3B (human); compound 1.0 µM): 87%
residual activity (PIM3 (human); compound 1.0 µM): 74%
residual activity (PAK6 (human); compound 1.0 µM): 107%
residual activity (MAPK8 (human); compound 1.0 µM): 70%
residual activity (FGFR1 (human); compound 1.0 µM): 103%

— the kinase profiling compilation of Christmann-Franck et al. (2016)
